Source: patent US11236122B2, “Triterpene amine derivatives” (DFH THERAPEUTICS, priority 2018, dated 2022)
Structures can show the parent of a compound that is named as a salt.

Legend:
[1] = test system: WT pNL4-3; test: CA-SP1 accumulation assay, WT NL4-3; assay type: cell-based, HIV-1; conditions: HeLa or 293T cells; for % CA-SP1 Accumulation 10 nM NL4-3: 10 nM compound
Procedure, shortened: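 HeLa or 293T cells transfected with proviral clone, maturation inhibitors present through transfection and labeling; at 24 h, [^35S]Met/Cys labeling 2-3 h. Virions pelleted by ultracentrifugation, lysed, CA and CA-SP1 resolved by SDS-PAGE and quantified by phosphorimaging.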

[2] = test system: panel of HIV-1 isolates in human PBMCs; test: PBMC antiviral assay against a panel of HIV-1 isolates (RT activity); assay type: cell-based
Method: Antiviral assays. To produce HIV-1 stocks, 293T cells were transfected with WT pNL4-3 or the SP1-V7A derivative and culture supernatants were collected 24 h post transfection. RT-normalized virus supernatants were used to infect MT-4 cells at room temperature for 30 min. Cells were then cultured in the presence of serial dilutions of compounds. At 4 d post-infection, the culture supernatants were subjected to RT assay to monitor viral replication. The 50% inhibitory concentrations (IC50s) were defined as compound concentrations that reduced RT levels to 50% those measured in the absence of inhibitor (DMSO only controls) using GraphPad Prism 6 software. The IC50s in primary peripheral blood mononuclear cells (PBMCs) were calculated with a multi-clade panel of HIV-1 isolates by Southern Research Institute (Frederick, Md.). The PBMCs were stimulated with phytohemagglutinin (PHA) and IL-2 prior to use in the antiviral assays.
Virus Isolates. Compound evaluation against a panel of HIV-1 isolates were performed by the Southern Research Institute (SRI). The viruses were chosen to include one isolate from each of the seven HIV-1 Group M envelope subtypes A, B, C, D, E, F, and G, as well as isolates from HIV-1 Groups O and N. In addition, various drug resistant HIV-1 isolates were included for evaluation. The HIV-1 isolates selected include CCR5-tropic and CXCR4-tropic isolates. Unless otherwise noted, all virus isolates were obtained from the NIH AIDS Research and Reference Reagent Program. Virus isolate 1022-48 was obtained from Dr. William A. Schief of Merck Research Laboratories. MDR769 and MDR807 were obtained from Dr. Thomas C. Merigan of Stanford University. A low passage stock of each virus was prepared using fresh human PBMCs and stored in liquid nitrogen. Pre-titered aliquots of each virus were removed from the freezer and thawed rapidly to rt in a biological safety cabinet immediately before use.
Human PBMC Preparation. Fresh human PBMCs were isolated from screened donors, seronegative for HIV and HBV (Biological Specialty Corporation, Colmar, Pa.). Cells were pelleted/washed 2-3 times by low speed centrifugation and resuspension in Dulbecco's phosphate buffered saline (PBS) to remove contaminating platelets. The leukophoresed blood was then diluted 1:1 with PBS and layered over 14 mL of Ficoll-Hypaque density gradient (Lymphocyte Separation Medium, Cell Grow #85-072-CL, density 1.078+/−0.002 g/mL) in a 50 mL centrifuge tube and then centrifuged for 30 min at 600×g. Banded PBMCs were gently aspirated from the resulting interface and subsequently washed twice with PBS by low speed centrifugation. After the final wash, cells were enumerated by trypan blue exclusion and re-suspended at 1×10^6 cells/mL in RPMI 1640 supplemented with 15% Fetal Bovine Serum (FBS), 2 mM L-glutamine, 100 U/mL penicillin, […] streptomycin, and 4 μg/mL Phytohemagglutinin (PHA; Sigma, St. Louis, Mo.; cat #L1668). The cells were allowed to incubate for 48-72 h at 37° C. After incubation, PBMCs were centrifuged and resuspended in RPMI 1640 with 15% FBS, L-glutamine, penicillin, streptomycin, non-essential amino acids (MEM/NEAA; Hyclone; cat #SH30238.01), and 20 U/mL recombinant human IL-2 (R&D Systems Inc., Minneapolis, Minn.; cat #202IL). PBMCs were maintained in this medium at a concentration of 1-2×10^6 cells/mL, with twice-weekly medium changes until they were used in the assay protocol. Monocytes-derived-macrophages were depleted from the culture as the result of adherence to the tissue culture flask.
PBMC Assay. For the standard PBMC assay, PHA stimulated cells from at least two normal donors were pooled (mixed together), diluted in fresh medium to a final concentration of 1×10^6 cells/mL, and plated in the interior wells of a 96 well round bottom microplate at 50 μL/well (5×10^4 cells/well) in a standard formate developed by the Infectious Disease Research Department of the SRI. […]

[3] = Cytotoxicity assay CellTitre-Blue, HEK-293T; assay type: cell-based; conditions: human, HEK-293T cells, read-out: Cytotoxicity CC50 HEK293T
Method: Cytotoxicity assays. Cytotoxicity assays were performed using the CellTitre-Blue Cell Viability Assay kit (Promega, USA) as per manufacturer's recommendations. HEK-293T and HUT-R5 cell lines were maintained in the presence of serial dilutions of the compounds for 4 days and treated with CellTitre-Blue reagent for 4 h at 37° C. The fluorescent signals were recorded at 530/25excision and 590/35emission using BioTek microplate reader. The 50% cytotoxicity concentrations (CC50s) were determined as the compound concentrations that reduced the fluorescent signals to 50% relative to DMSO only controls.

[4] = Human immunodeficiency virus 1, IIIB, PBMC, isolate A17 (IIIB)
[5] = Human immunodeficiency virus 1, NL43, PBMC, isolate NL4-3, PBMC
[6] = Human immunodeficiency virus 1, NL43, PBMC, isolate NL4-3 gp41(36G) N42T, N43K, PBMC
[7] = Human immunodeficiency virus 1, PBMC, isolate 92BR030, PBMC
[8] = Human immunodeficiency virus 1, PBMC, isolate 93BR029, PBMC
[9] = Human immunodeficiency virus 1, PBMC, isolate 93IN101, PBMC
[10] = Human immunodeficiency virus 1, PBMC, isolate 99UGA07412MI, PBMC
[11] = Human immunodeficiency virus 1, PBMC, isolate 1022-48, PBMC
[12] = Human immunodeficiency virus 1, PBMC, isolate 4736_4 (NL4-3), PBMC
[13] = Human immunodeficiency virus 1, PBMC, isolate BCF02, PBMC
[14] = Human immunodeficiency virus 1, PBMC, isolate CMU02, PBMC
[15] = Human immunodeficiency virus 1, PBMC, isolate JV1083, PBMC
[16] = Human immunodeficiency virus 1, PBMC, isolate MDR769, PBMC
[17] = Human immunodeficiency virus 1, PBMC, isolate YBF30, PBMC
[18] = Human immunodeficiency virus 1, PBMC, isolate 92RW009, PBMC
[19] = Human immunodeficiency virus 1, PBMC, isolate 92UG001, PBMC
[20] = Human immunodeficiency virus 1, PBMC, isolate 93BR020, PBMC
[21] = Human immunodeficiency virus 1, PBMC, isolate 1064-52, PBMC

Structure (SMILES) | IC50 [2, 4] | IC50 [2, 5] | IC50 [2, 6] | IC50 [2, 7] | IC50 [2, 8] | IC50 [2, 9] | IC50 [2, 10] | IC50 [2, 11] | IC50 [2, 12] | IC50 [2, 13] | IC50 [2, 14] | IC50 [2, 15] | IC50 [2, 16] | IC50 [2, 17] | % CA-SP1 Accumulation 10 nM NL4-3 [1] | IC50 [2, 18] | IC50 [2, 19] | IC50 [2, 20] | IC50 [2, 21] | CC50 at 4 days [3] | also measured
C=C(C)[C@@H]1CC[C@]2(CCNC3CCN(CCO)CC3)CC[C@]3(C)[C@H](CC[C@@H]4[C@@]5(C)CC[C@H](OC(=O)CC(C)(C)CC(=O)O)C(C)(C)[C@@H]5CC[C@]43C)[C@@H]12 [Compound 51f, (3β)-17-[2-[[1-(2-Hydroxyethyl)piperidin-4-yl]amino]ethyl]-28-norlup-20(29)-en-3-ol, 3-(Hydrogen 3,3-Dimethylpentanedioate), Bis(trifluoroacetate) Salt] | 8.2 nM | 4 nM | 5.6 nM | 100 nM | 5.1 nM | 89 nM | 8.2 nM | 18.9 nM | 3.3 nM | 4.6 nM | 316 nM | 477 nM | 5.9 nM | 14.8 nM | – | – | – | – | – | – | % CA-SP1 Accumulation 100 nM NL4-3 ([1]; 100 nM compound): 79.7 (3) %; IC50 ([2]; Human immunodeficiency virus 1, PBMC, isolate 92UG031, PBMC): > 1000 nM; IC50 ([2]; Human immunodeficiency virus 1, PBMC, isolate MDR807, PBMC): > 1000 nM
C=C(C)[C@@H]1CC[C@]2(CCNCCN3CCN(S(C)(=O)=O)CC3)CC[C@]3(C)[C@H](CC[C@@H]4[C@@]5(C)CC[C@H](OC(=O)CC(C)(C)C(=O)O)C(C)(C)[C@@H]5CC[C@]43C)[C@@H]12 [Compound 51ff, (3β)-17-[2-[[2-[4-(Methylsulfonyl)piperazin-1-yl]ethyl]amino]ethyl]-28-norlup-20(29)-en-3-ol, 3-(1-Hydrogen 2,2-Dimethylbutanedioate)] | 1.8 nM | 0.8 nM | 1.4 nM | > 1000 nM | 1.1 nM | 14.2 nM | 4.3 nM | 1.3 nM | 0.8 nM | 2.8 nM | 217 nM | 460 nM | 1.7 nM | 3.6 nM | 72.7 (3) % | 39.4 nM | < 0.15 nM | 2.4 nM | 0.7 nM | > 100 nM | –
C=C(C)[C@@H]1CC[C@]2(CCNCCN3CCS(=O)(=O)CC3)CC[C@]3(C)[C@H](CC[C@@H]4[C@@]5(C)CC[C@H](OC(=O)CC(C)(C)C(=O)O)C(C)(C)[C@@H]5CC[C@]43C)[C@@H]12 [Compound 51ee, (3β)-17-[[[2-[2-(1,1-Dioxothiomorpholin-4-yl)]Ethyl]Amino]Ethyl]-28-norlup-20(29)-en-3-ol, 3-(1-Hydrogen 2,2-Dimethylbutanedioate)] | 1.4 nM | 0.8 nM | 1.3 nM | 455 nM | 0.9 nM | 2.7 nM | 2.2 nM | 1.1 nM | 1 nM | 1.7 nM | 110 nM | 126 nM | 1.4 nM | 8.4 nM | 73.5% | 20.7 nM | 0.4 nM | 1.8 nM | 0.5 nM | > 100 nM | –
C=C(C)[C@@H]1CC[C@]2(CCNCCN3CCN(Cc4ccccc4)CC3)CC[C@]3(C)[C@H](CC[C@@H]4[C@@]5(C)CC[C@H](OC(=O)CC(C)(C)C(=O)O)C(C)(C)[C@@H]5CC[C@]43C)[C@@H]12 [Compound 51hh, (3β)-17-[2-[[2-[4-(Phenylmethyl)piperazin-1-yl]ethyl]amino]ethyl]-28-norlup-20(29)-en-3-ol, 3-(1-Hydrogen 2,2-Dimethylbutanedioate)] | 6.1 nM | 1.4 nM | 3.8 nM | > 1000 nM | 4.1 nM | 5.6 nM | 8 nM | 3.2 nM | 1.4 nM | 3.8 nM | 11.1 nM | 17.1 nM | 4.4 nM | 132 nM | 66.4 (3) % | 10.4 nM | 1.2 nM | 3 nM | 1.7 nM | > 100 nM | IC50 ([2]; isolate CMU02, PBMC): 7.1 nM
